Calls of active or inactive are those of the source. The rule behind the calls is not given here.
What was measured:
[1] = Inhibition of soybean 15-LOX incubated for 4 mins before linoleic acid substrate addition by spectrophotometry; parameters: species or system Glycine max
[2] = Toxicity in rat PC12 cells at 1 to 10 uM after 24 hrs by MTT assay; type: cell-based; details: pc-12, 24 h
PC-12 = experiment: Cytoprotective activity against rat PC12 cells assessed as protection against H2O2-induced cell death at 1 to 10 uM pre-treated 3 hrs before H2O2 addition and measured 24 hrs post H2O2 challenge by MTT assay; type: functional, cell-based

IC50 ([1]; read-out: IC50) [µM] | SMILES | other results
33 | CC(C)(C)Nc1c(-c2ccc(Cl)cc2)nc2scc(-c3ccccc3)n12 | 
765 | COc1ccc(-c2nc3scc(-c4ccccc4)n3c2NC2CCCCC2)cc1 | 
32 | CC(C)(C)CC(C)(C)Nc1c(-c2ccc([N+](=O)[O-])cc2)nc2scc(-c3ccc(Br)cc3)n12 | 
11.5 | COc1ccc(-c2csc3nc(-c4ccccc4)c(NC(C)(C)CC(C)(C)C)n23)cc1 | Activity [2]: Non-toxic; Activity (PC-12): Active
35.4 | Fc1ccccc1-c1nc2scc(-c3ccccc3)n2c1NC1CCCCC1 | 
52 | Clc1ccc(-c2nc3scc(-c4ccc(Br)cc4)n3c2NC2CCCCC2)cc1 | 
70 | CC(C)(C)CC(C)(C)Nc1c(-c2ccccc2[N+](=O)[O-])nc2scc(-c3ccccc3)n12 | 
170 | O=[N+]([O-])c1ccccc1-c1nc2scc(-c3ccc(Br)cc3)n2c1NC1CCCCC1 | 
35 | Cc1ccc(-c2nc3scc(-c4ccccc4)n3c2NC(C)(C)C)cc1 | 
20.7 | CC(C)(C)CC(C)(C)Nc1c(-c2ccc(Cl)cc2)nc2scc(-c3ccc(Br)cc3)n12 | 
737 | O=[N+]([O-])c1ccc(-c2nc3scc(-c4ccccc4)n3c2NC2CCCCC2)cc1 | 
45 | CC(C)(C)Nc1c(-c2ccc([N+](=O)[O-])cc2)nc2scc(-c3ccccc3)n12 | 
 | Brc1ccccc1-c1nc2scc(-c3ccccc3)n2c1NC1CCCCC1 | IC50 [1]: Not Active
58 | COc1ccc(-c2nc3scc(-c4ccccc4)n3c2NC(C)(C)C)cc1 | 

SMILES | IC50 ([1]; read-out: IC50) [µM] | other results
O=c1c(O)c(-c2ccc(O)c(O)c2)oc2cc(O)cc(O)c12 [QUERCETIN] | 23 | 
